Test results from patent US20210228548A1, “PHARMACEUTICAL COMPOSITION FOR PREVENTING, ALLEVIATING OR TREATING OSTEOARTHRITIS, CONTAINING RHODANINE DERIVATIVE AS ACTIVE INGREDIENT” (Avixgen Inc., priority 2018, published 2021).
“Also recorded” adds a separate entry of the source.

What was measured:
Type in all cases: in vivo, C57/BL6 mice
ZIP8-overexpressing mice [1] = test: Synovitis in ZIP8-overexpressing animal model (hematoxylin-eosin/safranin-O staining, synovitis score); settings: Ad-ZIP8 mice, intra-articular 0.0075, 0.015, 0.03 mg/kg once a week, three injections; for score of synovitis: untreated ZIP8 mice 2 or higher, FIGS. 2B, 4B, 6B; for inflammatory response (penetration of inflammatory cells into the synovium): versus vehicle group, FIGS. 1, 3, 5
Protocol: (§1) Osteoarthritis-induced mice were prepared by overexpressing the zinc importer ZIP8 in the cartilage and joint tissues of mice.
(§2) Specifically, the cartilage and joint tissues of about 12-week-old male C57/BL6 mice were injected intra-articularly with a normal control adenovirus (Ad-C) or a ZIP8-expressing adenovirus (Ad-S1c39a8). A vehicle group was treated only with a vehicle without a vector. Each of the adenoviruses was injected at a concentration of 1×10^9 PFU a total of three times (once a week).
(§3) Meanwhile, in order to evaluate the effect of each of the therapeutic agents AVIX-7, MA3001 and MA6004 on the amelioration of osteoarthritis induced by ZIP8 overexpression, AVIX-7, MA3001 or MA6004 was co-injected into the joint when each adenovirus was injected.
(§4) Each of the therapeutic agents was used at doses of 0.0075 mg/kg, 0.015 mg/kg and 0.03 mg/kg mouse body weight. Each therapeutic agent was administered by injection once a week, and the amount of each therapeutic agent administered at each time point was 10 μl. One week after the day of the last injection of a total of three injections, the mice were sacrificed and the degree of cartilage destruction and the degree of occurrence of synovitis were analyzed.
In order to evaluate the osteoarthritis amelioration effect of each of the therapeutic agents developed in the present disclosure, the ZIP8-overexpressing animal model was treated with AVIX-7, MA3001 or MA6004, and the cartilage and joint tissues of the animal model were stained with hematoxylin-eosin/safranin-O, and the presence or absence of synovitis was checked. The ZIP8-overexpressing animal model was prepared by the method described in Example 1.
In addition, the degree of synovitis was scored according to “Synovitis score: discrimination between chronic low-grade and high-grade synovitis. Histopathology 49, 358-364” described in Table 3 below, and was quantified graphically.

ZIP8-overexpressing mice [2] = test: Cartilage destruction in mice with osteoarthritis induced by ZIP8 overexpression (safranin-O staining, modified Mankin score); settings: Ad-ZIP8 mice, three injections; for modified Mankin score (degree of cartilage destruction): intra-articular 0.0075, 0.015, 0.03 mg/kg once a week, vehicle group 2 or higher, also decreased concentration-dependently, FIGS. 2A, 4A, 6A; for loss of the cartilage matrix (safranin-O staining of whole joint and cartilage): intra-articular co-injection 0.0075, 0.015, 0.03 mg/kg once a week, versus vehicle group, FIGS. 1, 3, 5
Protocol: as §1, §2, §3, §4
In order to evaluate the therapeutic effect of AVIX-7, MA3001 or MA6004 on osteoarthritis in ZIP8-overexpressing mice, whole joint and cartilage tissues were stained with safranin-O and the degree of cartilage destruction was checked.
In addition, the degree of safranin-O staining (reflecting the degree of cartilage destruction) according to Table 2 below was observed and degraded according to the modified Mankin score (Mankin, Henry J., and Louis Lippiello. JBJS 52.3 (1970): 424-434.), and the grades were quantified graphically. The Mankin score is an index indicating the degree of arthritis and may be determined by the degree of safranin-O staining in mice, and the lower the Mankin score, the closer to normal.

[3] = test system: mice with osteoarthritis induced by DMM; test: Osteoarthritis induced by destabilization of the medial meniscus (DMM): staining, OARSI grade, subchondral bone plate thickness; settings: intra-articular 0.0075, 0.015, 0.03 mg/kg once a week, three injections; for thickness of the subchondral bone plate (SBP): versus vehicle group (significantly increased), FIGS. 8B, 10B, 12B; for inflammation response in whole joint and cartilage tissues (images and OARSI grade): versus vehicle group, FIGS. 7B, 9B, 11B, 8A, 10A, 12A
Protocol: Mice with osteoarthritis induced by destabilization of the medial meniscus (DMM) were prepared. As a control group, a group (sham) whose meniscus was not damaged during surgery was used.
Specifically, osteoarthritis was induced by damaging the menisci of joints of about 12-week-old male C57/BL6 mice, and each therapeutic agent (AVIX-7, MA3001 or MA6004) was injected intra-articularly.
Each of the therapeutic agents was used at doses of 0.0075 mg/kg, 0.015 mg/kg and 0.03 mg/kg mouse body weight. Each therapeutic agent was administered by injection once a week, and the amount of each therapeutic agent administered at each time point was 10 μl. One week after the day of the last injection of a total of three injections, the mice were sacrificed and the effect of each therapeutic agent on the amelioration of osteoarthritis was evaluated.
In order to evaluate the effect of the compounds of the present disclosure on the amelioration of osteoarthritis, mice were subjected to destabilization of the medial meniscus (DMM) to induce osteoarthritis and were treated with AVIX-7, MA3001 or MA6004. In addition, the cartilage and joint tissues were stained with hematoxylin-eosin/safranin-O, and the effect of AVIX-7, MA3001 or MA6004 on the amelioration of osteoarthritis was evaluated pathologically. […] The OARSI grading method is described in Table 4 below.

Row | Compound | score of synovitis (ZIP8-overexpressing mice [1]) | inflammatory response (penetration of inflammatory cells into the synovium) (ZIP8-overexpressing mice [1]) | modified Mankin score (degree of cartilage destruction) (ZIP8-overexpressing mice [2]) | loss of the cartilage matrix (safranin-O staining of whole joint and cartilage) (ZIP8-overexpressing mice [2]) | thickness of the subchondral bone plate (SBP) [3] | inflammation response in whole joint and cartilage tissues (images and OARSI grade) [3]
1 | O=C(O)CCN1C(=O)/C(=C\c2ccc(-c3ccc(Cl)cc3)o2)SC1=S [AVIX-7, 3-{5-[5-(4-chlorophenyl)-furan-2-ylmethylene]-4-oxo-2-thioxo-thiazolidin-3-yl}-propionic acid] | significantly decreased | alleviating synovitis; also recorded: alleviated | lower than that of the vehicle group | rescuing the loss of cartilage matrix; also recorded: concentration-dependently rescued | decreased | alleviated
2 | CC(C)OC(=O)c1ccc(-c2ccc(/C=C3\SC(=S)N(CCCC(=O)O)C3=O)o2)cc1 [MA3001, 4-(5-((5-(4-(isopropoxycarbonyl)phenyl)furan-2-yl)methylene)-4-oxo-2-thioxothiazolidin-3-yl)butanoic acid] | significantly decreased | alleviating synovitis; also recorded: alleviated | lower than that of the vehicle group | rescuing the loss of cartilage matrix; also recorded: concentration-dependently rescued | decreased | alleviated
3 | O=C(O)CCN1C(=O)SC(Cc2ccc(-c3ccc(Cl)cc3)o2)C1=O (stereo not drawn) [MA6004, 3-(5-((5-(4-chlorophenyl)furan-2-yl)methyl)-2,4-dioxothiazolidin-3-yl)propionic acid] | significantly decreased | alleviating synovitis; also recorded: alleviated | lower than that of the vehicle group | rescuing the loss of cartilage matrix; also recorded: concentration-dependently rescued | decreased | alleviated
